Marks after values point to notes of the source that are not given here.
Columns and labels:
[1] = UV-visible absorbance spectroscopy; format: physicochemical; conditions: 0.1 mM
Experimental: Subsequently, the analysis was carried out under two distinct conditions: firstly, in DMF, at a final concentration of 0.1 mM; and secondly, in a mixture PBS:DMF (99:1%), at the same final concentration of 0.1 mM. These two experimental setups provided valuable insights into the spectral characteristics of the compounds in both a pure organic solvent and a solvent system closely resembling physiological conditions. The maxima absorption wavelengths are compiled in Table 3. These bands were attributed to transitions within the benzene and pyrone moieties, considered together as a single chromophore. […] Similarly, 7-MC and S-1 to S-6 compounds also absorb in this UV range (λmax = 328–330 nm). […] In the organic solvent, these values are found to be higher compared to those calculated for 4-MUB and 7-MC. Conversely, in PBS, the extinction coefficients for S-glycosides are lower compared to the parent thiol 7-MC. This highlights the profound impact of glycosylation on absorption properties, as well as the importance of solvent choice.
(§1) Both absorbance and fluorescence spectra were measured on a Tecan […] M PLEX 200 Pro plate reader equipped with monochromator allowing a scan from 230 to 1000 nm. All synthesized molecules were initially dissolved in 10 mM DMF and subsequently diluted in freshly prepared PBS (pH = 7.4) to achieve a final concentration of 0.1 mM. The solutions were then transferred to a Corning (Corning, NY, USA) UV-transparent 96-well plate. Absorbance spectra were recorded from 230 to 800 nm. Emission fluorescence spectra were recorded from 320 to 800 nm, under excitation at 280 nm. Excitation fluorescence spectra were recorded from 230 to 380 nm for an emission at 420 nm. All spectra were recorded with a wavelength step size of 2 nm. Data processing was performed with Excel software 2016. Fluorescence spectra are presented as normalized spectra ranging from 0 to 1. The relative quantum yields were calculated according to Equation (1):(1) ΦT=(AR/AT)×(FT/FR)×[…]×ΦR where Φ is the fluorescence quantum yield, A is the absorbance at the excitation wavelength, F is the area under the corrected emission curve, and n is the refractive index of the solvent for the test compound (T) and the reference (R). The 4-MUB value in DMF was used as the reference. The LOD (resp. LOQ) values were determined as the minimal concentration of product S-3 required to yield a fluorescence that was twice greater than (respectively, 5-times that of) the fluorescence noise on a sample containing PBS, using an excitation wavelength of 280 nm and an emission wavelength of 386 nm (Figure S44).

[2] = Fluorescence excitation/emission spectroscopy and relative quantum yield; format: physicochemical; conditions: 7-MC in presence of 10 mM DTT; for Fluorescence λmax ex: emission at 420 nm; for Fluorescence λmax em: excitation at 280 nm
Experimental: The values determined were close to those observed for the 4-MUB fluorophore.
as §1, with “All synthesized molecules were initially dissolved in 10 mM DMF and subsequently diluted in freshly prepared PBS (pH = 7.4) to achieve a final concentration of 0.1 mM.” left out

[3] = set-up: method as in doi:10.1016/1010-6030(89)87054-6; conditions: DMF; ref [50]; cited from earlier work
[4] = test system: MCF-7 (breast adenocarcinoma); experiment: MTT cell proliferation assay, MCF-7; format: cell-based; conditions: Homo sapiens, MCF7, 72 h incubation, 95% confidence interval in parentheses
Experimental: (§2) To use these S-glycosidic compounds in cellulo, the potential impact of the glycosidic linkage nature on the anticancer activity was assessed. The S-glycoside derivatives and the 7-MC were tested against four human cancer cell lines and a healthy one, namely A549 (lung carcinoma), HS-683 (glioma cancer), MCF-7 (breast adenocarcinoma), SK-MEL-28 (melanoma skin cancer), and HaCaT (keratinocyte normal skin), using MTT (thiazolyl blue tetrazolium bromide, Sigma-Aldrich, St. Louis, MO, USA) assay, as previously described in the literature. The selected reference drugs were 5-fluorouracil (5-FU) and etoposide.
(§3) Cell proliferation of five distinct cell lines was evaluated using the colorimetric MTT (thiazolyl blue tetrazolium bromide, Sigma) assay. Human keratinocyte normal skin HaCaT was cultivated in DMEM supplemented with 4.5 g/L glucose, 2 mM L-glutamine, and 10% FBS. Cancer cell lines and their respective growth media were obtained from CLS Cell Line Service GmbH (Eppelheim, Germany). Specifically, human skin melanoma SK-MEL-28 and human brain glioma HS683 were cultivated in DMEM with identical supplements as HaCaT cells. The human lung carcinoma cell line A-549 was grown in DMEM/Ham’s F12 (1:1) medium supplemented with 2 mM L-glutamine and 5% FBS. Additionally, human breast adenoma carcinoma MCF-7 cells were sustained in EMEM supplemented with 2 mM L-glutamine, sodium pyruvate, non-essential amino acids (NEAAs), 10 µg/mL insulin human, and 10% FBS. The MTT assay relies on the reduction of the yellow product thiazolyl blue tetrazolium bromide (MTT) to formazan, a purple-blue product, by mitochondrial dehydrogenases in metabolically active cells. The number of living cells after incubation in the presence (or absence, control) of the tested molecules is directly proportional to the blue color, which was measured by spectrophotometry. To perform the assay, cells were initially seeded at a density of 2500 cells/mL in 96-well culture plates (Nunc™ Edge 2.0, Fisher) and allowed to adhere and proliferate over a 24-hour incubation period. Following this, the cells were treated with various concentrations of the tested compounds, which were previously prepared as serial dilutions and dissolved in 0.1% DMSO. These stable solutions guarantee the consistency of experimental conditions over extended periods. Each concentration of the tested compounds underwent triplicate testing (n = 3), and cells were subsequently incubated for 72 h to allow for thorough evaluation. Following this incubation period, MTT reagent (5 mg/mL solution in PBS) was introduced to each well (10% v/v), and cells were further incubated for 4 h. Then, the culture medium was carefully removed, and the resulting blue formazan crystals were dissolved in 100 µL of 100% DMSO. Absorbance readings were taken at 540 nm, referencing a wavelength of 620 nm, using a spectrophotometer. In determining the IC50, the absorbance of serial dilutions of each cell line, treated under identical conditions but without the presence of the tested compounds, was measured.

HS683 (brain glioma) = experiment: MTT cell proliferation assay, HS683; format: cell-based; conditions: Homo sapiens, Hs 683, 72 h incubation, 95% confidence interval in parentheses
Experimental: as §2, §3

[5] = test system: HaCaT (keratinocyte normal skin); experiment: MTT cell proliferation assay, HaCaT; format: cell-based; conditions: Homo sapiens, 72 h incubation, 95% confidence interval in parentheses
Experimental: as §2, §3

[6] = test system: SK-MEL-28 (melanoma skin cancer); experiment: MTT cell proliferation assay, SK-MEL-28; format: cell-based; conditions: Homo sapiens, 72 h incubation, 95% confidence interval in parentheses
Experimental: as §2, §3

A-549 (lung carcinoma) = experiment: MTT cell proliferation assay, A-549; format: cell-based, human; conditions: Homo sapiens, A549, 72 h, 72 h incubation, 95% confidence interval in parentheses
Experimental: To use these S-glycosidic compounds in cellulo, the potential impact of the glycosidic linkage nature on the anticancer activity was assessed. The S-glycoside derivatives and the 7-MC were tested against four human cancer cell lines and a healthy one, namely A549 (lung carcinoma), HS-683 (glioma cancer), MCF-7 (breast adenocarcinoma), SK-MEL-28 (melanoma skin cancer), and HaCaT (keratinocyte normal skin), using MTT (thiazolyl blue tetrazolium bromide, Sigma-Aldrich, St. Louis, MO, USA) assay, as previously described in the literature.
as §3, with “These stable solutions guarantee the consistency of experimental conditions over extended periods.” left out

[7] = DMF, 7-MC in presence of 10 mM DTT

SMILES	Absorbance ε (molar absorption coefficient) [1, 7]	Absorbance λmax abs [1, 7]	emax (molar absorption coefficient) ([1]; PBS 1x (pH = 7.4), 7-MC + DTT 10 mM)	Absorbance λmax abs ([1]; PBS (PBS:DMF 99:1, pH 7.4), 7-MC in presence of 10 mM DTT)	Fluorescence λmax ex ([2]; DMF, 0.1 mM)	Fluorescence λmax em ([2]; DMF, 0.1 mM)	Fluorescence λmax ex ([2]; PBS pH 7.4, 0.1 mM)	Fluorescence λmax em ([2]; PBS pH 7.4, 0.1 mM)	Relative quantum yield Φ ([2]; PBS, relative to 4-MUB in DMF)	Quantum yield Φ (reference value) [3]	IC50 [4]	IC50 (HS683 (brain glioma))	IC50 [5]	IC50 [6]	IC50 (A-549 (lung carcinoma))
Cc1cc(=O)oc2cc(O)ccc12 [Compound 4-MUB, 4-methylumbelliferone, reference compound]	17.0 10^3 M^−1 cm^−1	322 nm	20129,15057 cm-1 M-1	324 nm	320 nm	380 nm	333 nm	448 nm	0.293	0.081 ^a	–	–	–	–	–
O=c1[nH]cc(F)c(=O)[nH]1 [Compound 5-FU, 5-fluorouracil, reference compound]	–	–	–	–	–	–	–	–	–	–	4.8 µM	37 µM	0.4 µM	6.6 µM	–
COc1cc([C@@H]2c3cc4c(cc3[C@@H](O[C@@H]3O[C@@H]5CO[C@@H](C)O[C@H]5[C@H](O)[C@H]3O)[C@H]3COC(=O)[C@H]23)OCO4)cc(OC)c1O [Etoposide, etoposide, reference compound]	–	–	–	–	–	–	–	–	–	–	3.9 µM	1.6 µM	0.5 µM	3.2 µM	1.6 µM

Reference: publication PMC10974290, “Biocatalytic Synthesis of Coumarin S-Glycosides: Towards Non-Cytotoxic Probes for Biomedical Imaging and Sensing” (Molecules, 2024)
